Legend:
[1] = target: T1, eNOS/Hb α interaction (Homo sapiens, UniProt P29474); test: Purified eNOS and Hb α protein interaction (co-immunoprecipitation, Western blot); type: binding
T1 construct: purchased Origene
T1 sequence (P29474 2-1203 limits assumed): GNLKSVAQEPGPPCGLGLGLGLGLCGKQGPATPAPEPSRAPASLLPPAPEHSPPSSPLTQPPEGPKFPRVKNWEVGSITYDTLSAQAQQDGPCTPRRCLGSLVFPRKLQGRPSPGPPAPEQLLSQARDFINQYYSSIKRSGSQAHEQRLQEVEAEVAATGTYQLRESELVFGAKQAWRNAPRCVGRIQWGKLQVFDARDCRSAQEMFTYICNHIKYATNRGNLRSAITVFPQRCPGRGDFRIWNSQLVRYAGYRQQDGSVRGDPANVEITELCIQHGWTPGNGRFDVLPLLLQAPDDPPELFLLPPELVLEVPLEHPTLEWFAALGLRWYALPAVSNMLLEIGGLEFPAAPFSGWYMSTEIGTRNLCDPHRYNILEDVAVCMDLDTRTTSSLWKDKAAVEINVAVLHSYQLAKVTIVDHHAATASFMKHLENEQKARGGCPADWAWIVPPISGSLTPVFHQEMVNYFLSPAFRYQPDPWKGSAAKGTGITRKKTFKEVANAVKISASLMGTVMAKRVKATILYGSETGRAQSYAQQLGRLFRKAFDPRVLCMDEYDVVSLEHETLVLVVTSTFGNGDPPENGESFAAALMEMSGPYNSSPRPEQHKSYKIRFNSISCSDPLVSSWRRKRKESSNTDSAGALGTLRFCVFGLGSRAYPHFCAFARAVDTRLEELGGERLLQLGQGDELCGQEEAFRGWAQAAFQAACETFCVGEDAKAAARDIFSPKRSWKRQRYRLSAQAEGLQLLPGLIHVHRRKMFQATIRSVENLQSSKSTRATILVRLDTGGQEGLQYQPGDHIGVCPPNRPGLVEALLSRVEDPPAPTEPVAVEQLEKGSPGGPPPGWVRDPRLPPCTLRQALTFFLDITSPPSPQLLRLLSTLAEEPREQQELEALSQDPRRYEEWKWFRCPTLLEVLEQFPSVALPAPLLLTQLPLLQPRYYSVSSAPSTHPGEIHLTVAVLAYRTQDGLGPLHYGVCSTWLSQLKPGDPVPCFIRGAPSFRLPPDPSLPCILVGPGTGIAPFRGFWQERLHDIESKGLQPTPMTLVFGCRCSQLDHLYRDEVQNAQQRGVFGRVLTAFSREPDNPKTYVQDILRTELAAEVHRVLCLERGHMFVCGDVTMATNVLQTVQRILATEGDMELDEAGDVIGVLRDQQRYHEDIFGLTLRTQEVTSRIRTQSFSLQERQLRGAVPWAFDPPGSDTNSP
Protocol: Purified Flag-eNOS was purchased from Origene and isolated Hb α chains were generated as previously described^9. Co-immunoprecipitation studies were performed by incubating 1 μg of Flag-eNOS with 5 μmol/L of each peptide (tat-only, Scr X or Hb α X) for 30 minutes at 37° C. while shaking. Then, 1 μg of isolated Hb α chains were added to the Flag-eNOS/peptide complex for an additional 30 minutes at 37° C. shaking. Anti-Flag nickel beads, blocked with 1% bovine albumin serum for 1 hour, were added to each condition for an additional hour with agitation. Proteins were washed 3× with PBS for 15 minutes and purified protein-protein complexes were precipitated using a strong magnet. The nickel beads were incubated with 5×SDS PAGE buffer to elute proteins off the beads. Samples were subjected to Western blot analysis to determine peptide-induced disruption of Hb α and eNOS binding.

[2] = test system: abdominal aortic rings; test: Abdominal aorta ring assay; set-up: species or system mouse; conditions: compared to untreated aortas or aortas treated with Scr X
Protocol: Abdominal aortas were isolated, cut into 2 mm wide rings and mounted on a DMT myograph system with low bath volumes as previously described^16. Briefly, rings were stretched at 1.2× resting length in Krebs solution and allowed to equilibrate for 30 min at 37° C. prior to depolarization with […] K^+ [i]. Following the high K^+ contraction, rings were returned to Krebs solution and incubated with 5 μmol/L Scr X or Hb α X peptide for 20 minutes. Cumulative concentrations of phenylephrine (PE) (10^−10-10^−4 mol/L) were added to the rings and the magnitude of the tension response measured in milli-newtons.

[3] = test system: human coronary endothelial cells; test: Nitrite measurements from media of coronary endothelial cells; type: cell-based
Protocol: Primary coronary endothelial cells (Lonza) were cultured on plastic 6-well dishes as previously described^9. For studies involving basal NO release, endothelial cells were incubated with 5 μmol/L of Scr X or Hb α X for 20 minutes followed by medium collection and nitrite measurements as described below. For bradykinin studies, coronary endothelial cells were grown to confluence followed by serum starvation overnight in a cocktail of Lonza EGM-2 medium supplemented with EGM-2 bullet kit and Opti MEM reduced growth medium using a ratio of 1:9 respectively. The next day, endothelial cells were incubated with Scr X or Hb α X peptide for 20 minutes followed by the addition of 10 μM bradykinin (Sigma) for 5 minutes followed by medium collection for nitrite measurements as described below.
Quantitation of nitrite in culture medium was measured by chemiluminescence using a Sievers nitric oxide analyzer according to manufacturer's instructions. Quantitation of peaks was analyzed using Origin Pro 6.0 as previously described^9.

[4] = test system: thoracodorsal arteries; test: Pressure myography on thoracodorsal arteries, phenylephrine dose response with peptides; set-up: species or system mouse
[5] = test system: thoracodorsal arteries; test: cGMP assay on thoracodorsal arteries; set-up: species or system mouse
Protocol: Isolated thoracodorsal arteries were cannulated and pressurized to 80 mmHg as previously described^13. Arteries were perfused with 5 μM Scr X or Hb α X with addition of 0.5 mmol/L of the phosphodiesterase inhibitor 3-isobutyl-1-methylxanthine (IBMX) (all conditions) or 100 μmol/L the nitric oxide synthase inhibitor L-NG-Nitroarginine Methyl Ester (L-NAME) for 20 minutes. Arteries were then stimulated with 50 μM phenylephrine for 10 minutes and immediately immersed in lysis buffer provided in the cGMP XP assay Kit (Cell Signaling) according to manufactures instructions. Briefly, a competition enzyme-linked immunoassay was used to generate a standard curve of known cGMP concentrations followed by calculating cGMP concentrations of experimental samples. The cGMP concentration in experimental samples was normalized to total protein concentration.

[6] = test system: thoracodorsal arteries from eNOS−/− animals; test: Pressure myography on thoracodorsal arteries from eNOS−/− mice; set-up: species or system mouse

Peptide LSFPTTKTYF (SEQ ID NO:2), first ten amino acids of the Hb α sequence, with HIV-tat tag YGRKKRRQRRR at the N-terminus [Hb α X]
eNOS/Hb α interaction ([1]; 5 μmol/L peptide, Flag-eNOS and purified Hb α chains): significantly disrupted
Inhibition of binding ([1]; purified Hb α and eNOS protein): > 90%
Phenylephrine dose response curves [2]: no significant change
Nitrite accumulation following stimulation with bradykinin ([3]; 10 μM bradykinin, 5 minutes, Scr X vs Hb α X): no change
Accumulation of nitrite in the culture medium, basal ([3]; unstimulated cells): no differences
Constriction in phenylephrine dose response curves ([4]; compared to untreated arteries): significant decrease in constriction
Emax, vascular reactivity dose response curves ([4]; phenylephrine dose response, thoracodorsal arteries perfused with peptide): 68.0 ± 5.3 % initial diameter
Constriction in phenylephrine dose response curves with L-NAME ([4]; plus L-NAME 100 μmol/L): reversed
cGMP accumulation with L-NAME ([5]; phenylephrine stimulation plus L-NAME): reversed
cGMP accumulation ([5]; phenylephrine stimulation, compared to Scr X peptide): significant increase
Magnitude of phenylephrine induced constriction [6]: no alteration
